Test results: ChEMBL document CHEMBL1201861, “Genomics of Drug Sensitity in Cancer screening data, Wellcome Trust Sanger Institute”

Experiments:
Test in all cases: cells
Settings in all cases: Homo sapiens
CP50-MEL-B = assay type: functional, cell-based;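 also: growth inhibition of the human cell line, measured with a cell viability read-out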
Description: SANGER: Inhibition of human CP50-MEL-B cell growth in a cell viability assay.

Ca-Ski = assay type: functional, cell-based;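 also: cell viability assay measuring inhibition of Ca-Ski cell growth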
Description: SANGER: Inhibition of human Ca-Ski cell growth in a cell viability assay.

Ca9-22 = assay type: functional, cell-based;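 also: growth inhibition of Ca9-22 cells, read out with a cell viability assay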
Description: SANGER: Inhibition of human Ca9-22 cell growth in a cell viability assay.

DU-145 = assay type: functional, cell-based
Description: SANGER: Inhibition of human DU-145 cell growth in a cell viability assay.

Detroit 562 = assay type: functional, cell-based;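 also: growth inhibition of human Detroit 562 cells, read out by a cell viability assay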
Description: SANGER: Inhibition of human Detroit562 cell growth in a cell viability assay.

EFM-19 = assay type: functional, cell-based;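 also: growth inhibition of human EFM-19 cells, measured in a cell viability assay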
Description: SANGER: Inhibition of human EFM-19 cell growth in a cell viability assay.

EFO-21 = assay type: functional, cell-based;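 also: growth inhibition of EFO-21 cells measured with a viability assay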
Description: SANGER: Inhibition of human EFO-21 cell growth in a cell viability assay.

FTC-133 = assay type: functional, cell-based
GP5d = assay type: functional, cell-based;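 also: growth inhibition of human GP5d cells, read out with a cell viability assay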
Description: SANGER: Inhibition of human GP5d cell growth in a cell viability assay.

HCC1395 = assay type: functional, cell-based;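 also: growth inhibition of HCC1395 cells, read out by a cell viability assay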
Description: SANGER: Inhibition of human HCC1395 cell growth in a cell viability assay.

HCC 2998 = assay type: functional, cell-based;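 also: growth inhibition of human HCC2998 cells, measured with a cell viability read-out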
Description: SANGER: Inhibition of human HCC2998 cell growth in a cell viability assay.

HEC-1 = assay type: functional, cell-based;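 also: growth inhibition of the cell line, read out with a cell viability assay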
Description: SANGER: Inhibition of human HEC-1 cell growth in a cell viability assay.

HPAF-II = assay type: functional, cell-based;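 also: growth inhibition of HPAF-II cells, read out with a cell viability assay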
Description: SANGER: Inhibition of human HPAF-II cell growth in a cell viability assay.

HT-1080 = assay type: functional, cell-based
Description: SANGER: Inhibition of human HT-1080 cell growth in a cell viability assay.

HuCCT-1 = assay type: functional, cell-based, HuCCT1;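 also: growth inhibition of HuCCT-1 cells, read out by a cell viability assay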
Description: SANGER: Inhibition of human HuCCT1 cell growth in a cell viability assay.

IGROV-1 = assay type: functional, cell-based;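 also: reduction of IGROV-1 cell growth, read out with a viability assay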
Description: SANGER: Inhibition of human IGROV-1 cell growth in a cell viability assay.

KP-N-YN = assay type: functional, cell-based;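 also: growth inhibition of KP-N-YN cells, read out with a cell viability assay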
Description: SANGER: Inhibition of human KP-N-YN cell growth in a cell viability assay.

LB996-RCC = assay type: functional, cell-based
Description: SANGER: Inhibition of human LB996-RCC cell growth in a cell viability assay.

LU-99A = assay type: functional, cell-based;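 also: growth inhibition of LU-99A cells, read out with a cell viability assay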
Description: SANGER: Inhibition of human LU-99A cell growth in a cell viability assay.

MCF7 = assay type: functional, cell-based;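 also: growth inhibition of human MCF7 cells, read out with a cell viability assay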
Description: SANGER: Inhibition of human MCF7 cell growth in a cell viability assay.

ME-180 = assay type: functional, cell-based;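 also: cell viability assay measuring growth inhibition of ME-180 cells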
Description: SANGER: Inhibition of human ME-180 cell growth in a cell viability assay.

MEL-HO = assay type: functional, cell-based
Description: SANGER: Inhibition of human MEL-HO cell growth in a cell viability assay.

NB14 = assay type: functional, cell-based;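 also: growth inhibition of NB14 cells measured with a cell viability assay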
Description: SANGER: Inhibition of human NB14 cell growth in a cell viability assay.

NCI-H1573 = assay type: functional, cell-based;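 also: growth inhibition of NCI-H1573 cells, read out with a cell viability assay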
Description: SANGER: Inhibition of human NCI-H1573 cell growth in a cell viability assay.

NCI-H1792 = assay type: functional, cell-based;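 also: growth inhibition of human NCI-H1792 cells, read out as cell viability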
Description: SANGER: Inhibition of human NCI-H1792 cell growth in a cell viability assay.

NCI-H2122 = assay type: functional, cell-based;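 also: growth inhibition of the cells, read out with a cell viability assay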
Description: SANGER: Inhibition of human NCI-H2122 cell growth in a cell viability assay.

NCI-H2342 = assay type: functional, cell-based;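 also: growth inhibition of the cancer cell line, determined with a cell viability assay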
Description: SANGER: Inhibition of human NCI-H2342 cell growth in a cell viability assay.

NCI-H727 = assay type: functional, cell-based;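 also: growth inhibition of human NCI-H727 cells, read out with a cell viability assay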
Description: SANGER: Inhibition of human NCI-H727 cell growth in a cell viability assay.

OVCAR-3 = assay type: functional, cell-based;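 also: growth inhibition of human OVCAR-3 cells, determined by a cell viability assay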
Description: SANGER: Inhibition of human OVCAR-3 cell growth in a cell viability assay.

PANC-08-13 = assay type: functional, cell-based;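 also: cell growth inhibition, measured with a cell viability assay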
Description: SANGER: Inhibition of human PANC-08-13 cell growth in a cell viability assay.

RCM-1 = assay type: functional, cell-based;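 also: growth inhibition of the RCM-1 line, determined with a cell viability readout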
Description: SANGER: Inhibition of human RCM-1 cell growth in a cell viability assay.

SBC-5 = assay type: functional, cell-based;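 also: cell viability assay read-out, IC50 is the concentration that inhibits growth of the cells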
Description: SANGER: Inhibition of human SBC-5 cell growth in a cell viability assay.

SNU-423 = assay type: functional, cell-based
Description: SANGER: Inhibition of human SNU-423 cell growth in a cell viability assay.

SW-620 = assay type: functional, cell-based;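 also: growth inhibition of human SW-620 cells, measured by a cell viability assay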
Description: SANGER: Inhibition of human SW620 cell growth in a cell viability assay.

8305C = assay type: functional, cell-based
Description: SANGER: Inhibition of human 8305C cell growth in a cell viability assay.

A253 cell line = assay type: functional, cell-based;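 also: growth inhibition of A253 cells, read out with a cell viability assay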
Description: SANGER: Inhibition of human A253 cell growth in a cell viability assay.

BPH-1 = assay type: functional, cell-based;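 also: cell viability assay measuring growth inhibition of human BPH-1 cells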
Description: SANGER: Inhibition of human BPH-1 cell growth in a cell viability assay.

BT-20 = assay type: functional, cell-based;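 also: cell viability assay measuring suppression of growth in human BT-20 cells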
Description: SANGER: Inhibition of human BT-20 cell growth in a cell viability assay.

CAL-120 = assay type: functional, cell-based;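 also: cell growth inhibition, read out as cell viability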
Description: SANGER: Inhibition of human CAL-120 cell growth in a cell viability assay.

U-251 = assay type: functional, cell-based;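 also: growth inhibition of human U-251 cells, read out through a cell viability assay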
Description: SANGER: Inhibition of human U251 cell growth in a cell viability assay.

YAPC = assay type: functional, cell-based;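 also: growth inhibition of YAPC cells, measured with a cell viability assay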
Description: SANGER: Inhibition of human YAPC cell growth in a cell viability assay.

CAPAN-1 = assay type: functional, cell-based;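 also: growth suppression of CAPAN-1 cells, read out by a cell viability assay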
Description: SANGER: Inhibition of human CAPAN-1 cell growth in a cell viability assay.

CHL-1 = assay type: functional, cell-based;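 also: cell growth inhibition, read out with a cell viability assay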
Description: SANGER: Inhibition of human CHL-1 cell growth in a cell viability assay.

CHP-212 = assay type: functional, cell-based
Description: SANGER: Inhibition of human CHP-212 cell growth in a cell viability assay.

COLO-680N = assay type: functional, cell-based;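 also: cell viability assay used to measure inhibition of COLO-680N cell growth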
Description: SANGER: Inhibition of human COLO-680N cell growth in a cell viability assay.

HCT-15 = assay type: functional, cell-based;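 also: cell viability readout, IC50 reflecting suppression of HCT-15 cell growth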
Description: SANGER: Inhibition of human HCT-15 cell growth in a cell viability assay.

NCI-H1703 = assay type: functional, cell-based;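 also: growth inhibition of NCI-H1703 cells, read out via a cell viability assay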
Description: SANGER: Inhibition of human NCI-H1703 cell growth in a cell viability assay.

CC(=O)c1c(C)c2cnc(Nc3ccc(N4CCNCC4)cn3)nc2n(C2CCCC2)c1=O [PALBOCICLIB]
IC50 (CP50-MEL-B): > 4 µM
IC50 (Ca-Ski): > 4 µM
IC50 (Ca9-22): > 4 µM
IC50 (DU-145): 3.46 µM
IC50 (Detroit 562): > 4 µM
IC50 (EFM-19): > 4 µM
IC50 (EFO-21): > 4 µM
IC50 (FTC-133): > 4 µM
IC50 (GP5d): > 4 µM
IC50 (HCC1395): > 4 µM
IC50 (HCC 2998): > 4 µM
IC50 (HEC-1): > 4 µM
IC50 (HPAF-II): > 4 µM
IC50 (HT-1080): 1.38 µM
IC50 (HuCCT-1): > 4 µM
IC50 (IGROV-1): > 4 µM
IC50 (KP-N-YN): > 4 µM
IC50 (LB996-RCC): > 4 µM
IC50 (LU-99A): > 4 µM
IC50 (MCF7): 2.71 µM
IC50 (ME-180): > 4 µM
IC50 (MEL-HO): > 4 µM
IC50 (NB14): 0.484 µM
IC50 (NCI-H1573): 2.07 µM
IC50 (NCI-H1792): > 4 µM
IC50 (NCI-H2122): > 4 µM
IC50 (NCI-H2342): > 4 µM
IC50 (NCI-H727): > 4 µM
IC50 (OVCAR-3): > 4 µM
IC50 (PANC-08-13): > 4 µM
IC50 (RCM-1): > 4 µM
IC50 (SBC-5): > 4 µM
IC50 (SNU-423): > 4 µM
IC50 (SW-620): 2.26 µM
IC50 (8305C): > 4 µM
IC50 (A253 cell line): > 4 µM
IC50 (BPH-1): > 4 µM
IC50 (BT-20): > 4 µM
IC50 (CAL-120): > 4 µM
IC50 (U-251): 0.814 µM
IC50 (YAPC): > 4 µM
IC50 (CAPAN-1): > 4 µM
IC50 (CHL-1): > 4 µM
IC50 (CHP-212): 0.594 µM
IC50 (COLO-680N): > 4 µM

CC[C@@]1(O)C(=O)OCc2c1cc1n(c2=O)Cc2cc3ccccc3nc2-1 [CAMPTOTHECIN]
IC50 (CP50-MEL-B): 0.0721 µM
IC50 (Ca-Ski): 0.00497 µM
IC50 (Ca9-22): 0.00221 µM
IC50 (DU-145): > 0.1 µM
IC50 (Detroit 562): 0.0133 µM
IC50 (EFO-21): 0.0203 µM
IC50 (FTC-133): 0.00457 µM
IC50 (GP5d): 0.0125 µM
IC50 (HCC1395): > 0.1 µM
IC50 (HCT-15): > 0.1 µM
IC50 (HEC-1): 0.0181 µM
IC50 (HPAF-II): 0.0551 µM
IC50 (HT-1080): 0.000394 µM
IC50 (HuCCT-1): 0.0732 µM
IC50 (IGROV-1): 0.0363 µM
IC50 (LU-99A): 0.00385 µM
IC50 (MCF7): 0.00643 µM
IC50 (ME-180): 0.00269 µM
IC50 (MEL-HO): 0.00763 µM
IC50 (NB14): 0.000907 µM
IC50 (NCI-H1703): 0.00651 µM
IC50 (NCI-H1792): 0.0401 µM
IC50 (NCI-H2122): 0.013 µM
IC50 (NCI-H2342): > 0.1 µM
IC50 (NCI-H727): > 0.1 µM
IC50 (OVCAR-3): > 0.1 µM
IC50 (PANC-08-13): 0.0449 µM
IC50 (RCM-1): 0.0287 µM
IC50 (SBC-5): 0.0321 µM
IC50 (SW-620): 0.00408 µM
IC50 (8305C): 0.094 µM
IC50 (BPH-1): 0.00208 µM
IC50 (BT-20): 0.026 µM
IC50 (CAL-120): > 0.1 µM
IC50 (U-251): 0.00187 µM
IC50 (YAPC): 0.0296 µM
IC50 (CAPAN-1): 0.015 µM
IC50 (CHL-1): 0.00609 µM
IC50 (CHP-212): 0.00103 µM
IC50 (COLO-680N): 0.0724 µM

NC(=O)c1ncn([C@@H]2O[C@H](COP(=O)(O)O)[C@@H](O)[C@H]2O)c1N
IC50 (CP50-MEL-B): > 2000 µM
IC50 (Ca-Ski): > 2000 µM
IC50 (Ca9-22): 1260 µM
IC50 (DU-145): > 2000 µM
IC50 (Detroit 562): 1220 µM
IC50 (EFM-19): 343 µM
IC50 (EFO-21): > 2000 µM
IC50 (GP5d): 1770 µM
IC50 (HCC1395): > 2000 µM
IC50 (HCC 2998): > 2000 µM
IC50 (HCT-15): 1890 µM
IC50 (HEC-1): > 2000 µM
IC50 (HPAF-II): > 2000 µM
IC50 (HT-1080): > 2000 µM
IC50 (HuCCT-1): 1080 µM
IC50 (IGROV-1): > 2000 µM
IC50 (KP-N-YN): > 2000 µM
IC50 (LU-99A): > 2000 µM
IC50 (MCF7): 901 µM
IC50 (ME-180): 416 µM
IC50 (MEL-HO): 397 µM
IC50 (NB14): 1450 µM
IC50 (NCI-H1573): 353 µM
IC50 (NCI-H1703): > 2000 µM
IC50 (NCI-H1792): 1590 µM
IC50 (NCI-H2122): 507 µM
IC50 (NCI-H2342): > 2000 µM
IC50 (NCI-H727): > 2000 µM
IC50 (OVCAR-3): > 2000 µM
IC50 (PANC-08-13): 1300 µM
IC50 (RCM-1): > 2000 µM
IC50 (SBC-5): 1480 µM
IC50 (SNU-423): 1220 µM
IC50 (SW-620): > 2000 µM
IC50 (8305C): > 2000 µM
IC50 (BPH-1): 1560 µM
IC50 (BT-20): 1400 µM
IC50 (CAL-120): 838 µM
IC50 (U-251): > 2000 µM
IC50 (YAPC): > 2000 µM
IC50 (CAPAN-1): > 2000 µM
IC50 (CHL-1): > 2000 µM
IC50 (COLO-680N): > 2000 µM
